Source: PubChem BioAssay AID328 (DTP/NCI, 2004)
Values joined by “and” are separate entries in the source; they are usually repeats but may differ in a detail not shown here. Equal entries are not always repeated. Inconclusive results and toxic doses are left out. The calls were made as follows: active = survival T/C of 150% or more; inactive = T/C below 125% in these data.

Tested on: BDF1 mice, P388 leukemia ip, median survival T/C
Test: NCI In Vivo Anticancer Drug Screen. Data for tumor model P388 Leukemia (intraperitoneal) in B6D2F1 (BDF1) mice
Conditions: endpoint: median survival time, schedule: Q01DX009 (ip), higher = longer survival
Method in brief: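 Read-out is survival of treated animals expressed relative to the vehicle group, as a T/C ratio.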

Measured: T/C

CCCCCCCCCCCCCC(=O)O[C@@H]1[C@@H](C)[C@@]2(O)[C@@H](C=C(CO)C[C@]3(O)C(=O)C(C)=C[C@@H]23)[C@@H]2C(C)(C)[C@]12OC(C)=O
inactive: dose: 0.03 mg/kg/injection, vehicle: Klucel (hydroxypropylcellulose) (HPC) 110 % of control | dose: 0.03 mg/kg/injection, vehicle: saline + alcohol 108 % of control | dose: 0.06 mg/kg/injection, vehicle: Klucel (hydroxypropylcellulose) (HPC) 100 % of control | dose: 0.06 mg/kg/injection, vehicle: saline + alcohol 110 % of control | dose: 0.12 mg/kg/injection, vehicle: Klucel (hydroxypropylcellulose) (HPC) 110 % of control | dose: 0.12 mg/kg/injection, vehicle: saline + alcohol 117 % of control | dose: 0.25 mg/kg/injection, vehicle: Klucel (hydroxypropylcellulose) (HPC) 92 % of control | dose: 0.25 mg/kg/injection, vehicle: saline + alcohol 116 % of control | dose: 0.5 mg/kg/injection, vehicle: Klucel (hydroxypropylcellulose) (HPC) 100 % of control | dose: 0.5 mg/kg/injection, vehicle: saline + alcohol 104 % of control | dose: 1.0 mg/kg/injection, vehicle: Klucel (hydroxypropylcellulose) (HPC) 108 % of control | dose: 3.1 micrograms/kg/injection, vehicle: gum acacia 97 % of control and 108 % of control | dose: 3.1 micrograms/kg/injection, vehicle: saline with Tween-80 105 % of control | dose: 6.2 micrograms/kg/injection, vehicle: gum acacia 94 % of control | dose: 6.2 micrograms/kg/injection, vehicle: saline with Tween-80 109 % of control | dose: 12.5 micrograms/kg/injection, vehicle: gum acacia 106 % of control | dose: 12.5 micrograms/kg/injection, vehicle: saline with Tween-80 104 % of control | dose: 25.0 micrograms/kg/injection, vehicle: gum acacia 103 % of control and 118 % of control | dose: 25.0 micrograms/kg/injection, vehicle: saline with Tween-80 109 % of control | dose: 50.0 micrograms/kg/injection, vehicle: gum acacia 97 % of control and 108 % of control and 116 % of control | dose: 50.0 micrograms/kg/injection, vehicle: saline with Tween-80 114 % of control | dose: 100.0 micrograms/kg/injection, vehicle: gum acacia 106 % of control and 108 % of control | dose: 100.0 micrograms/kg/injection, vehicle: saline with Tween-80 113 % of control | dose: 200.0 micrograms/kg/injection, vehicle: gum acacia 101 % of control and 103 % of control and 113 % of control | dose: 200.0 micrograms/kg/injection, vehicle: saline with Tween-80 97 % of control | dose: 400.0 micrograms/kg/injection, vehicle: gum acacia 103 % of control | dose: 400.0 micrograms/kg/injection, vehicle: saline with Tween-80 103 % of control | dose: 800.0 micrograms/kg/injection, vehicle: gum acacia 100 % of control and 106 % of control

COC(=O)/C(C=Nc1ccccc1)=C(/C)O
inactive: dose: 50.0 mg/kg/injection, vehicle: Klucel (hydroxypropylcellulose) (HPC) 112 % of control | dose: 100.0 mg/kg/injection, vehicle: Klucel (hydroxypropylcellulose) (HPC) 103 % of control | dose: 200.0 mg/kg/injection, vehicle: Klucel (hydroxypropylcellulose) (HPC) 108 % of control
